Reference: PubChem BioAssay (NCI)
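How tested: cells in 96-well plates exposed to compound for 48 hours at five concentrations. GI50 = concentration required for 50% inhibition of growth. TGI: total growth inhibition.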

Assays:
Assay in all cases: DTP human tumour cell line panel, 48 h
[1] = test system: BT-549 breast
[2] = test system: SNB-19 CNS
[3] = test system: SK-MEL-2 melanoma
[4] = test system: HCC-2998 colon
[5] = test system: RXF 393 renal
[6] = test system: T-47D breast
[7] = test system: NCI-H460 lung
[8] = test system: HT29 colon
[9] = test system: NCI-H23 lung
[10] = test system: HL-60(TB) leukemia
[11] = test system: UACC-62 melanoma
[12] = test system: SK-MEL-28 melanoma
[13] = test system: UACC-257 melanoma
[14] = test system: MOLT-4 leukemia
[15] = test system: HCT-116 colon
[16] = test system: CAKI-1 renal
[17] = test system: SN12C renal
[18] = test system: OVCAR-3 ovarian
[19] = test system: IGROV1 ovarian
[20] = test system: K-562 leukemia
[21] = test system: 786-0 renal
[22] = test system: NCI-H522 lung
[23] = test system: COLO 205 colon
[24] = test system: SF-295 CNS
[25] = test system: MALME-3M melanoma
[26] = test system: HOP-92 NSCLC
[27] = test system: SR leukemia
[28] = test system: LOX IMVI melanoma
[29] = test system: NCI/ADR-RES ovarian
[30] = test system: PC-3 prostate
[31] = test system: ACHN renal
[32] = test system: MDA-MB-435
[33] = test system: EKVX NSCLC
[34] = test system: OVCAR-8 ovarian
[35] = test system: KM12 colon
[36] = test system: MCF7 breast
[37] = test system: SNB-75 CNS
[38] = test system: HOP-62 NSCLC
[39] = test system: A498 renal
[40] = test system: DU-145 prostate
[41] = test system: SK-OV-3 ovarian
[42] = test system: OVCAR-4 ovarian
[43] = test system: NCI-H226 lung
[44] = test system: SW-620 colon
[45] = test system: OVCAR-5 ovarian
[46] = test system: SF-539 CNS
[47] = test system: TK-10 renal
[48] = test system: SK-MEL-5 melanoma
[49] = test system: MDA-MB-231 breast
[50] = test system: M14 melanoma
[51] = test system: HCT-15 colon
[52] = test system: U251 CNS
[53] = test system: UO-31 renal
[54] = test system: HS 578T breast
[55] = test system: A549 NSCLC
[56] = test system: RPMI-8226 leukemia
[57] = test system: SF-268 CNS
[58] = test system: CCRF-CEM leukemia

Structure (SMILES): COc1ccc(C(=O)c2cc(OC)c3c(c2)OCO3)cc1O
- GI50 [1]: 3060 nM
- TGI [1]: > 100000 nM
- GI50 [2]: 377 nM
- TGI [2]: > 100000 nM
- GI50 [3]: 346 nM
- TGI [3]: 34400 nM
- GI50 [4]: 1720 nM
- TGI [4]: > 31500 nM
- GI50 [5]: 215 nM
- TGI [5]: 674 nM
- GI50 [6]: 883 nM
- TGI [6]: > 100000 nM
- GI50 [7]: 299 nM
- TGI [7]: 9450 nM
- GI50 [8]: 3180 nM
- TGI [8]: > 57200 nM
- GI50 [9]: 248 nM
- TGI [9]: > 24800 nM
- GI50 [10]: 119 nM
- TGI [10]: 2240 nM
- GI50 [11]: 946 nM
- TGI [11]: > 100000 nM
- GI50 [12]: 457 nM
- TGI [12]: > 100000 nM
- GI50 [13]: 1130 nM
- TGI [13]: > 79500 nM
- GI50 [14]: 617 nM
- TGI [14]: > 100000 nM
- GI50 [15]: 345 nM
- TGI [15]: 9190 nM
- GI50 [16]: 1410 nM
- TGI [16]: > 100000 nM
- GI50 [17]: 1090 nM
- TGI [17]: > 100000 nM
- GI50 [18]: 213 nM
- TGI [18]: 481 nM
- GI50 [19]: 1180 nM
- TGI [19]: > 100000 nM
- GI50 [20]: 45.9 nM
- TGI [20]: > 100000 nM
- GI50 [21]: 933 nM
- TGI [21]: > 100000 nM
- GI50 [22]: 25.9 nM
- TGI [22]: 105 nM
- GI50 [23]: 7510 nM
- TGI [23]: 21000 nM
- GI50 [24]: 832 nM
- TGI [24]: > 100000 nM
- GI50 [25]: 6720 nM
- TGI [25]: > 100000 nM
- GI50 [26]: 824 nM
- TGI [26]: 52700 nM
- GI50 [27]: 42.3 nM
- TGI [27]: > 100000 nM
- GI50 [28]: 180 nM
- TGI [28]: > 100000 nM
- GI50 [29]: 43.6 nM
- GI50 [30]: 908 nM
- TGI [30]: > 100000 nM
- GI50 [31]: 1570 nM
- TGI [31]: > 100000 nM
- GI50 [32]: 22.1 nM
- TGI [32]: 60.3 nM
- GI50 [33]: 19800 nM
- TGI [33]: > 100000 nM
- GI50 [34]: 387 nM
- TGI [34]: > 100000 nM
- GI50 [35]: 50.5 nM
- TGI [35]: 2640 nM
- GI50 [36]: 332 nM
- TGI [36]: 64000 nM
- GI50 [37]: 166 nM
- TGI [37]: 34600 nM
- GI50 [38]: 383 nM
- TGI [38]: > 54200 nM
- GI50 [39]: 2340 nM
- TGI [39]: 7500 nM
- GI50 [40]: 340 nM
- TGI [40]: 3520 nM
- GI50 [41]: 200 nM
- TGI [41]: 1580 nM
- GI50 [42]: 1720 nM
- TGI [42]: > 100000 nM
- GI50 [43]: 2490 nM
- TGI [43]: 8810 nM
- GI50 [44]: 57.7 nM
- TGI [44]: > 100000 nM
- GI50 [45]: 4490 nM
- TGI [45]: > 100000 nM
- GI50 [46]: 199 nM
- TGI [46]: 3070 nM
- GI50 [47]: 5700 nM
- TGI [47]: 99400 nM
- GI50 [48]: 261 nM
- TGI [48]: 1710 nM
- GI50 [49]: 572 nM
- TGI [49]: > 100000 nM
- GI50 [50]: 47.3 nM
- TGI [50]: 5220 nM
- GI50 [51]: 112 nM
- TGI [51]: > 100000 nM
- GI50 [52]: 315 nM
- TGI [52]: > 100000 nM
- GI50 [53]: 3640 nM
- TGI [53]: > 100000 nM
- GI50 [54]: 190 nM
- TGI [54]: > 32100 nM
- GI50 [55]: 614 nM
- TGI [55]: > 100000 nM
- GI50 [56]: 309 nM
- TGI [56]: > 44000 nM
- GI50 [57]: 287 nM
- TGI [57]: 16100 nM
- GI50 [58]: 298 nM
- TGI [58]: > 100000 nM
